Measurements published in PMC7764991, “Chronic Plasma Exposure to Kinase Inhibitors in Patients with Oncogene-Addicted Non-Small Cell Lung Cancer” (Cancers, 2020).

Key:
[1] = set-up: method as in PMID 22038662; conditions: hepatocellular carcinoma patients, plasma measured every 15 days; cited from earlier work
[2] = cited from earlier work; for Proposed target for TDM, Cmin: Table S1, plasma trough level, ref supplementary refs 1-11, per drug; for Target value of residual plasma concentration defining 'optimal concentration': recommended for TDM
[3] = Table S2; ref supplementary refs 9-18, per drug; cited from earlier work
[4] = cited from earlier work
[5] = studies of KI concentrations for other cancers; cited from earlier work
[6] = Residual plasma concentration of kinase inhibitors by UPLC-MS/MS in NSCLC patients, classed optimal or suboptimal
Experimental: Patients with advanced NSCLC harboring oncogenic drivers, such as an EGFR-mutation, BRAF^V600E-mutation, ALK-fusion, or ROS1-fusion, treated with KI therapy for at least three months were eligible. […] KI plasma concentrations were evaluated in blood samples collected during therapy, and at the time of clinical response or relapse. Chronic plasma exposure was defined as at least three months of KI therapy. Clinical and pathological data were extracted from electronic medical records. Radiological assessments were performed every 8 or 12 weeks per Response Evaluation Criteria in Solid Tumors (RECIST) v1.1 and per the treating physician’s discretion.
Residual plasma concentrations of drugs were measured in blood samples using ultra-performance liquid chromatography coupled with tandem mass spectrometry validated methods. A residual estimate based on pharmacokinetic and population pharmacokinetic analysis parameters (Table S2) was made for samples not collected at the time of the residual sampling.
Precise measurement of trough concentrations is challenging in routine practice, due to the constraints of the logistics of blood collection at a precise time and the fact that the timing of administration varies from patient to patient. We defined three situations according to the dosing time with respect to the last dose: Optimal, evaluable, and non-interpretable.
• Optimal: The optimal concentration corresponds to the true residual plasma concentration at a steady state, in the blood collection performed immediately before the next administration. • Evaluable: The residual plasma concentration is estimated by an extrapolation method from known pharmacokinetic parameters (distribution volume, half-life, clearance) and from data obtained in population pharmacokinetic models. This estimate of standard trough concentration (Cmin, std) is only possible when blood samples were collected at steady state or during the terminal elimination phase of the drug, since in this phase, the elimination rate is linear. • - C (min, std) = C(t) * 0.5 ^ (Delta (t)/t1/2) • - C (min, std) = C(t) * exp (k(e) x Delta (t))
• 3. Not interpretable: Extrapolation is not feasible for samples taken during the plasma peak period.

[7] = samples after at least three months of KI, % of the optimal group (n = 25)
[8] = samples after at least three months of KI, % of the suboptimal group (n = 26)

SMILES	Exposure after three months of treatment compared with one month [1]	Proposed target for TDM, Cmin [2] [ng/mL]	Target value of residual plasma concentration defining 'optimal concentration' [2] [ng/mL]	Bioavailability [3] [%]	Distribution volume [3] [L]	Half-life [3] [h]	Hepatic elimination [3] [%]	Effect of cigarette smoke on plasmatic exposure ([4]; cigarette smoke induces CYP1A1)	Interaction with proton pump inhibitors [4]	Suboptimal concentration rate [5] [%]	Samples with optimal concentration ([6]; human, in vivo)	Samples with suboptimal concentration ([6]; human, in vivo)	Tmax [3] [h]	Metabolic pathway [3]	Samples with optimal concentration [6, 7]	Samples with suboptimal concentration [6, 8]
CNC(=O)c1cc(Oc2ccc(NC(=O)Nc3ccc(Cl)c(C(F)(F)F)c3)cc2)ccn1 [sorafenib]	lower than after one month of treatment	–	–	–	–	–	–	–	–	–	–	–	–	–	–	–
C#Cc1cccc(Nc2ncnc3cc(OCCOC)c(OCCOC)cc23)c1 [Erlotinib, erlotinib]	–	≥ 500	> 500	59	232	36.2	90	significantly decreases	decreasing their bioavailability and the plasmatic exposure	11	7 (28%) No. (%)	6 (23%) No. (%)	–	–	–	–
C=CC(=O)Nc1cc(Nc2nccc(-c3cn(C)c4ccccc34)n2)c(OC)cc1N(C)CCN(C)C [Osimertinib, osimertinib]	–	≥ 166	> 166	70	–	44	–	–	–	–	4 (16%) No. (%)	6 (23%) No. (%)	6	–	–	–
CCN(CC)CCNC(=O)c1c(C)[nH]c(/C=C2\C(=O)Nc3ccc(F)cc32)c1C [sunitinib]	–	–	–	–	–	–	–	–	–	49	–	–	–	–	–	–
CC(C)(C)c1nc(-c2cccc(NS(=O)(=O)c3c(F)cccc3F)c2F)c(-c2ccnc(N)n2)s1 [Dabrafenib, dabrafenib]	–	≥ 96.1	> 96.1	–	46	8	73	–	not relevant	–	–	–	–	CYP2C8, 3A4	2 (8%) No. (%)	3 (11.5%) No. (%)
CC(=O)Nc1cccc(-n2c(=O)n(C3CC3)c(=O)c3c(Nc4ccc(I)cc4F)n(C)c(=O)c(C)c32)c1 [Trametinib, trametinib]	–	≥ 10.6	> 10.6	–	–	127	80	–	not relevant	–	2 (8%) No. (%)	3 (11.5%) No. (%)	–	Deacetylation	–	–
C[C@@H](Oc1cc(-c2cnn(C3CCNCC3)c2)cnc1N)c1c(Cl)ccc(F)c1Cl [Crizotinib, crizotinib]	–	≥ 235	> 235	43	1772	–	63	–	not relevant	–	–	–	4 to 6	CYP3A4	2 (8%) No. (%)	5 (19.5%) No. (%)
COc1cc2ncnc(Nc3ccc(F)c(Cl)c3)c2cc1OCCCN1CCOCC1 [Gefitinib, gefitinib]	–	≥ 200	> 200	59	–	41	–	–	–	–	8 (32%) No. (%)	3 (11.5%) No. (%)	3 to 7	–	–	–
